Experimental data reported in patent publication US10829506B2, “Amino- or ammonium-containing sulfonic acid, phosphonic acid and carboxylic acid derivatives and their medical use” (GRI Bio, Inc., priority 2011, dated 2020).

Key:
[1] = tested on: BALB/cJW mice; assay: Delayed-type hypersensitivity (DTH) reaction, mouse ear swelling; type: in vivo
Description: The anti-inflammatory and anti-allergic effects of compound 1a was assessed in a mouse model of skin delayed-type hypersensitivity (DTH) reactions and compared to a vehicle control and to the reference drug dexamethasone. DTH reactions are antigen-specific cell-mediated immune responses, driven primarily by T helper type 1 (Th1) cells, similar to the tuberculin immunization response. The immune reaction induced by an ovalbumin challenge to animals previously sensitized with ovalbumin in Complete Freund's Adjuvant, is characterized by swelling (edema) at the site of challenge, e.g. the mouse ear. Dexamethasone, an anti-inflammatory steroid, reduces cell-mediated immune responses and was employed to validate the responsiveness of the assay to pharmacological treatment.
Female BALB/cJW mice were bred at the University of Lodz, Lodz, Poland and housed in groups of 8 in makrolon cages with a 12 h light-dark cycle. Mice were given free access to food (Agropol S. j., Motycz, Poland) and water.
Group size was n=8 mice unless otherwise stated. Test compound was freshly prepared before administration.
Sensitization: The protein antigen, ovalbumin, was reconstituted in PBS at 4 mg/ml. […] The emulsion was tested by putting a drop of emulsion onto PBS; if the emulsion remained as a light droplet on the PBS, the emulsion was deemed ready. […]
Challenge: On the sixth day after sensitization, DTH was elicited by challenging animals subcutaneously (gauge 30 needle, B. Braun Melsungen, Melsungen, Germany) in the left ears with 10 μL of a 1% suspension of heat-aggregated ovalbumin (HOVA) (100 μg ovalbumin per mouse). […] Ear thickness was measured with a precise spring-loaded caliper (Art. No, 7309, Mltutoyo, Kawasaki, Japan) before challenge, and 24 h after challenge. […]
To account for individual variability, the increase in right ear thickness, before and 24 h after administration of PBS, was subtracted from the HOVA-induced increase in left ear thickness. The increase in ear thickness was calculated by the difference between ear thickness before and 24 h after antigen challenge. […]

[2] = Body weight and toxic side-effects in the DTH study; type: in vivo, mice; conditions: oral
Description: Three hours after the last dose, the antigen challenge was performed on the ears as described above. Dexamethasone was given at 1 mg/kg orally by gavage 3 h before sensitization and once daily with the final dose given 3 h prior to antigen challenge (a total of 7 administrations). All administrations were given in a volume of 10 mL/kg.
Such high dosing (overdose) is, however, not suitable for treatment of humans due to severe side effects of the corticosteroid and was only used to validate the responsiveness of the model.

## CCCCCCCCCCCCCC[N+](C)(C)CCCS(=O)(=O)[O-] [Compound 1a, 3-(N,N-Dimethylmyristylammonio)-Propanesulfonate]
[1]; 1a oral vs dexamethasone 1 mg/kg
  Inhibition of DTH response relative to that of a high dose of dexamethasone: 65%
[1]; oral, 1a 100 mg/kg (loading dose, then maintenance doses), dexamethasone 1.0 mg/kg once daily, 24 h after ovalbumin challenge
  Inhibition of mouse ear swelling (DTH response): 32%
[2]
  Toxic side-effects during the course of the study: no toxic side-effects
